# Source: patent publication US6864086B2, “Nitric oxide-scavenging system for culturing oocytes, embryos, or other cells” (Board of Supervisors of Louisiana State University and …, priority 1998, dated 2005)
# Marks after values point to notes of the source that are not given here.
# Tests used:
# bovine blastocysts = experiment: Example 8 supplemental: blastocyst cell number by Hoechst 33342 stain; format: cell-based; conditions: 8 days after insemination; Hb 1 μg/ml added to culture medium; vs. 124.2±8.4
# Protocol: In Example 8, bovine follicular oocytes were collected from November 1996 to May 1997, and matured and fertilized in culture. (Oocytes collected during summer and early fall were not used in this study, to avoid interference from environmental heat stress on in vitro survival of embryos.) IVF embryos were collected at 18 h post-insemination and cultured in mBECM supplemented with FBS (10%, v/v), to which 0 or 1 μg/ml Hb (from bovine, mainly methemoglobin, H-2500, Sigma Co.) was added. Development of embryos to the 2-cell, 8-cell, 16-cell, morula, and blastocyst stages was monitored 48, 60, 120, 144 and 192 h post-insemination, respectively. As a supplemental experiment, some blastocysts in each treatment (20 or 28) were randomly collected, and the cell number of the blastocysts was counted by use of Hoechst stain 33342 and a fluorescent microscope (Diaphod, Nikkon, Tokyo, Japan). This experiment used 1675 embryos in 25 replicates, with IVF embryos randomly allotted among treatments.
# [1] = test system: inseminated bovine oocytes co-cultured with cumulus-granulosa cells; experiment: Example 5: Hb (1 μg/ml) added to mBECM-C at different times of co-culture with CGs; format: cell-based; conditions: for No of embryos developed to the 2-cell / % of embryos developed to the 2-cell: examined 48 h; for No of embryos developed to the 8-cell / % of embryos developed to the 8-cell: examined 60 h; for No of embryos developed to the 16-cell / % of embryos developed to the 16-cell: examined 120 h; for No of embryos developed to the Morula / % of embryos developed to the Morula: examined 144 h; for No of embryos developed to the Blastocyst / % of embryos developed to the Blastocyst: examined 192 h
# Protocol: mBECM containing 10 μM β-mercaptoethanol was used to culture embryos, as described in J. Lim et al., “Roles of growth factors in the development of bovine embryos fertilized in vitro and cultured singly in a defined medium,” Reprod. Fertil. Dev., 8, 1199-1205 (1996). To culture individual 8-cell embryos we used mBECM supplemented with 1 ng/ml platelet derived growth factor type AB (PDGF; Upstate Biotechnology Inc., Lake Placid, N.Y.), 1 ng/ml transforming growth factor-β (TGF; R & D System, Minneapolis, Minn.), 50 ng/ml arachidonic acid (AA; Cayman Chemical Co., Ann Arbor, Mich.), 100 μM glutathione (GSH; Sigma Co.) and 1 mg/ml polyvinyl alcohol (PVA) (mBECM-S). mBECM to which 10% (v/v) FBS was added (mBECM-C) was used for co-culturing inseminated zygotes with CGs and for producing 8-cell embryos. Osmolarity of the medium was maintained within the range of 265-290 mOsm.
# The bovine cumulus-oocyte complexes (COCs) used were collected in Madison, Wis. (BOMED, Inc.), and were shipped in 2-ml of maturation medium in a battery powered incubator via overnight express mail service. Oocytes matured during transit and arrived within 24 h after exposure to maturation medium, pre-equilibrated at 39° C. in 5% CO2 in air. At 22-24 h after exposure to the medium, the COCs were inseminated in vitro as described in J. Lim et al., “Intracytoplasmic glutathione concentration and the role of β-mercaptoethanol in preimplantation development of bovine embryos,” Theriogenology, 46, 429-439 (1996). At 18 h post-insemination, COCs were cultured in groups (30-35 embryos) in a 4-well multidish (Nunc, Roskilde, Denmark) containing 0.8-ml of mBECM-C. Embryos were dislodged from CGs at 36-48 h post-insemination.
# In Example 1, embryos (83-85 per group) collected 18 h post-insemination were cultured in mBECM-C, to which 0, 0.008, or 0.04 mM SNP was added at 18 or 60 h post-insemination. In Example 2, 8-cell embryos (80 per group) were produced in a co-culture system containing CGs and mBECM-C, and then beginning at 60 h post-insemination were cultured singly in a defined culture medium (mBECM-S), to which 0, 0.0016, 0.008, or 0.04 mM of SNP (S-0501, Sigma Co.) was added. In Example 3 embryos, either uncleaved (n=99) or developed to the 2-cell stage (90), were collected 48 h post-insemination; and cleaved embryos, either developed to the morula stage (69) or degenerate (63) were collected 144 h post-insemination. NO metabolites were then measured in the embryos. In Example 4, three groups of 95 zygotes each were co-cultured with CGs in mBECM-C, to which 0, 1, or 10 μg/ml Hb (bovine, mainly methemoglobin, H-2500, Sigma Co.) was added. […] In Example 6, inseminated oocytes (93 per group) were cultured in the presence or absence of CGs in mBECM-C to which either 0 or 1 μg/ml Hb was added. In Example 7, 8-cell embryos (100 per group), obtained after culture in mBECM-C supplemented with Hb (1 μg/ml), were cultured singly in mBECM-S, with or without Hb.
# Oocytes or 8-cell embryos were randomly and equally allocated to each treatment group. In Examples 1, 2, and 4-7, oocytes or embryos that had developed to the 2-cell, 8-cell, >8-cell, 16-cell morula, and blastocyst stages were individually scored ‘1’ (developed) at 48, 60, 96, 120, 144 and 192 h post-insemination, respectively. […] Sums of the scores in each stage of development were evaluated by analysis of variance (ANOVA) using the general linear model (PROC-GLM) in the SAS program software. In Example 3, concentrations of NO metabolites in embryos were subjected to ANOVA. […] Differences were regarded as statistically significant where P values were less than 0.05.
# [2] = Hb 1 μg/ml added 18 h post-insemination (1-cell)
# [3] = Hb 1 μg/ml added 18 h post-insemination (1-cell), 104 oocytes
# [4] = Hb 1 μg/ml added 60 h post-insemination (8-cell)
# [5] = Hb 1 μg/ml added 60 h post-insemination (8-cell), 104 oocytes
# [6] = Hb 1 μg/ml added 144 h post-insemination (Morula)
# [7] = Hb 1 μg/ml added 144 h post-insemination (Morula), 103 oocytes
substance,measurement,setting,value
hemoglobin [Hb],number of blastocyst cells,bovine blastocysts,128.6±7.1
same,Ratio of blastocysts to morulae,[1]; [2],0.74
same,No of embryos developed to the 2-cell,[1]; [3],76
same,No of embryos developed to the 8-cell,[1]; [3],52
same,No of embryos developed to the 16-cell,[1]; [3],45
same,No of embryos developed to the Morula,[1]; [3],34
same,No of embryos developed to the Blastocyst,[1]; [3],25
same,% of embryos developed to the 2-cell,[1]; [2],73%
same,% of embryos developed to the 8-cell,[1]; [2],50%
same,% of embryos developed to the 16-cell,[1]; [2],43%
same,% of embryos developed to the Morula,[1]; [2],33%
same,% of embryos developed to the Blastocyst,[1]; [2],24%
same,Ratio of blastocysts to morulae,[1]; [4],1.00
same,No of embryos developed to the 2-cell,[1]; [5],67
same,No of embryos developed to the 8-cell,[1]; [5],40
same,No of embryos developed to the 16-cell,[1]; [5],35
same,No of embryos developed to the Morula,[1]; [5],30
same,No of embryos developed to the Blastocyst,[1]; [5],30
same,% of embryos developed to the 2-cell,[1]; [4],64%
same,% of embryos developed to the 8-cell,[1]; [4],38%
same,% of embryos developed to the 16-cell,[1]; [4],34%
same,% of embryos developed to the Morula,[1]; [4],29%
same,% of embryos developed to the Blastocyst,[1]; [4],29%
same,Ratio of blastocysts to morulae,[1]; [6],0.96
same,No of embryos developed to the 2-cell,[1]; [7],64
same,No of embryos developed to the 8-cell,[1]; [7],34
same,No of embryos developed to the 16-cell,[1]; [7],28
same,No of embryos developed to the Morula,[1]; [7],23
same,No of embryos developed to the Blastocyst,[1]; [7],"22 (22)^c,d"
same,% of embryos developed to the 2-cell,[1]; [6],62%
same,% of embryos developed to the 8-cell,[1]; [6],33%
same,% of embryos developed to the 16-cell,[1]; [6],27%
same,% of embryos developed to the Morula,[1]; [6],22%
same,% of embryos developed to the Blastocyst,[1]; [6],"22 (22)^c,d %"
same,proportion of blastocysts,"[1]; Hb 1 μg/ml added at 18 or 60 h post-insemination, controls 13%",24-29%
